Patent publication US20200011856A1, “Method for Determining the Effectiveness of Treatment for the Prevention of Heartworm Disease” (priority 2017, published 2020)
“And” between values parts separate entries of the source, which are not always exact repeats. Identical values can stand only once.

Legend:
[1] = test system: Dirofilaria immitis (Merial worms, UC strain); assay: D. immitis L3 infection of NSG mice with Merial worms / UC strain, treatment, recovery and count of worms; format: in vivo; details: for % Rec, Mean / Mean % Rec: group mean; for Mean Survival / Survival, Mean: in vivo
Dirofilaria immitis = assay: D. immitis L3 infection of NSG mice (FR3 Missouri strain or strain not stated), treatment, recovery and count of worms at necropsy; format: in vivo; details: for % Rec, Mean / Mean % Rec: group mean
[2] = NSG mice, 50 Di L3 Merial worms, 1 mg/kg on Days 1, 15, and 30, recovery Days 41 to 43
[3] = NSG mice, 50 Di L3 UC strain, High Dose 5 mg/kg on Days 1, 15, and 30, recovery Days 41 and 42
[4] = NSG mice, 50 Di L3 UC strain, Normal Dose 1 mg/kg on Days 1, 15, and 30, recovery Days 41 and 42
[5] = Table 9, NSG mice, 50 Di L3, 1 mg/kg on Days 1, 15, and 30, recovery Days 41 to 43
[6] = Table 9, individual mouse, NSG mice, 50 Di L3, 1 mg/kg on Days 1, 15, and 30, recovery Days 41 to 43
[7] = Table 11, NSG mice, 50 Di L3, 1 mg/kg on Days 1, 15, and 30, recovery Days 41 to 42
[8] = Table 11, NSG mice, 50 Di L3, 5 mg/kg on Days 1, 15, and 30, recovery Days 41 to 42

## C[C@H]1OC(=O)[C@H](CC(C)(C)C)N(C)C(=O)[C@@H](Cc2ccc(C3CCOCC3)cc2)OC(=O)[C@H](CC(C)(C)F)N(C)C(=O)[C@@H](C)OC(=O)[C@H](CC(C)(C)C)N(C)C(=O)[C@@H](Cc2ccc(C3CCOCC3)cc2)OC(=O)[C@H](CC(C)(C)F)N(C)C1=O [compound 4838]
[1]; 4838 1 mg/kg Days 1, 15, 30, 50 Di L3 (UC Strain) per NSG mouse, recovery Days 41 to 43
  % Rec, Mean: 9%
[1]; 4838 1 mg/kg Days 1, 15, 30, 50 Di L3 (UC Strain) per NSG mouse, recovery Days 41 to 43, individual mice, 1 mg/kg
  % Rec: 10% and 14% and 8% and 20% and 6% (2×) and 2%
[1]; 4838 1 mg/kg Days 1, 15, 30, 50 Di L3 (UC Strain) per NSG mouse, vs Control
  % Red: 75%
[1]; 4838 5 mg/kg Days 1, 15, 30, 50 Di L3 (UC Strain) per NSG mouse, recovery Days 41 to 43
  % Rec, Mean: 2%
[1]; 4838 5 mg/kg Days 1, 15, 30, 50 Di L3 (UC Strain) per NSG mouse, recovery Days 41 to 43, individual mice, 5 mg/kg
  % Rec: 2% (4×) and 0% and 4% (2×)
[1]; 4838 5 mg/kg Days 1, 15, 30, 50 Di L3 (UC Strain) per NSG mouse, vs Control
  % Red: 94%
[1]; [2]
  % Red: 38%
  Mean % Rec: 21%
[1]; [3]
  % Red: 92%
  Mean % Rec: 3%
[1]; [4]
  % Red: 58%
  Mean % Rec: 15%
[1]; 1 mg/kg
  Mean Survival: 10 and 8
  Survival, Mean: 5
[1]; 5 mg/kg
  Mean Survival: 1
  Survival, Mean: 1
[1]; individual mouse, NSG mice, 50 Di L3 Merial worms, 1 mg/kg on Days 1, 15, and 30, recovery Days 41 to 43, 1 mg/kg
  % Rec: 20% (3×) and 12% and 24% and 16% (2×) and 36%
[1]; individual mouse, NSG mice, 50 Di L3 UC strain, High Dose 5 mg/kg on Days 1, 15, and 30, recovery Days 41 and 42, 5 mg/kg
  % Rec: 4% (4×) and 0% and 2% (2×)
[1]; individual mouse, NSG mice, 50 Di L3 UC strain, Normal Dose 1 mg/kg on Days 1, 15, and 30, recovery Days 41 and 42, 1 mg/kg
  % Rec: 14% (3×) and 16% (3×) and 18%
Dirofilaria immitis; 4838 1 mg/kg days 1, 15, 30, 50 Di L3 (FR3 worms) per NSG mouse, Table 17, vs Control
  % Red: % Red: 50%
Dirofilaria immitis; 4838 1 mg/kg days 1, 15, 30, 50 Di L3 (FR3 worms) per NSG mouse, recovery Days 41 and 42, Table 17
  % Rec, Mean: 14%
Dirofilaria immitis; 4838 1 mg/kg days 1, 15, 30, 50 Di L3 (FR3 worms) per NSG mouse, recovery Days 41 and 42, Table 17, individual mice, 1 mg/kg
  % Rec: 10% (2×) and 20% and 16% (2×) and 12% (2×)
Dirofilaria immitis; 4838 2.5 mg/kg days 1, 15, 30, 50 Di L3 (FR3 worms) per NSG mouse, Table 17, vs Control
  % Red: % Red: 76%
Dirofilaria immitis; 4838 2.5 mg/kg days 1, 15, 30, 50 Di L3 (FR3 worms) per NSG mouse, recovery Days 41 and 42, Table 17
  % Rec, Mean: 6%
Dirofilaria immitis; 4838 2.5 mg/kg days 1, 15, 30, 50 Di L3 (FR3 worms) per NSG mouse, recovery Days 41 and 42, Table 17, individual mice, 2.5 mg/kg
  % Rec: 2% and 12% and 4% (3×) and 10% and 8%
Dirofilaria immitis; 4838 5 mg/kg days 1, 15, 30, 50 Di L3 (FR3 worms) per NSG mouse, Table 17, vs Control
  % Red: % Red: 93%
Dirofilaria immitis; 4838 5 mg/kg days 1, 15, 30, 50 Di L3 (FR3 worms) per NSG mouse, recovery Days 41 and 42, Table 17
  % Rec, Mean: 2%
Dirofilaria immitis; 4838 5 mg/kg days 1, 15, 30, 50 Di L3 (FR3 worms) per NSG mouse, recovery Days 41 and 42, Table 17, individual mice, 5 mg/kg
  % Rec: 0% (4×) and 4% (3×)
Dirofilaria immitis; 4838 10 mg/kg Days 1, 15, 30, 50 Di L3 per NSG mouse, Table 14, vs Control
  % Red: 100%
Dirofilaria immitis; 4838 10 mg/kg Days 1, 15, 30, 50 Di L3 per NSG mouse, recovery Days 41 to 42, Table 14
  % Rec, Mean: 0%
Dirofilaria immitis; 4838 10 mg/kg Days 1, 15, 30, 50 Di L3 per NSG mouse, recovery Days 41 to 42, Table 14, individual mice
  % Rec: 0%
Dirofilaria immitis; 4838 10 mg/kg days 1, 15, 30, 50 Di L3 (FR3 worms) per NSG mouse, Table 17, vs Control
  % Red: % Red: 99%
Dirofilaria immitis; 4838 10 mg/kg days 1, 15, 30, 50 Di L3 (FR3 worms) per NSG mouse, recovery Days 41 and 42, Table 17
  % Rec, Mean: 0.29%
Dirofilaria immitis; 4838 10 mg/kg days 1, 15, 30, 50 Di L3 (FR3 worms) per NSG mouse, recovery Days 41 and 42, Table 17, individual mice, 10 mg/kg
  % Rec: 0% (6×) and 2%
Dirofilaria immitis; 4838 .5 mg/kg days 1, 15, 30, 50 Di L3 (FR3 worms) per NSG mouse, Table 17, vs Control
  % Red: % Red: 36%
Dirofilaria immitis; 4838 .5 mg/kg days 1, 15, 30, 50 Di L3 (FR3 worms) per NSG mouse, recovery Days 41 and 42, Table 17
  % Rec, Mean: 18%
Dirofilaria immitis; 4838 .5 mg/kg days 1, 15, 30, 50 Di L3 (FR3 worms) per NSG mouse, recovery Days 41 and 42, Table 17, individual mice
  % Rec: 22% and 8% (2×) and 34% and 16% and 12% and 28%
Dirofilaria immitis; [5]
  % Red: 24%
  Mean % Rec: 25%
Dirofilaria immitis; [6]
  % Rec: 26% and 30% (2×) and 12% and 14% and 32%
Dirofilaria immitis; [7]
  % Red: 21%
  Mean % Rec: 19%
Dirofilaria immitis; [8]
  % Red: 92%
  Mean % Rec: 2%
Dirofilaria immitis; Table 11, individual mouse, NSG mice, 50 Di L3, 1 mg/kg on Days 1, 15, and 30, recovery Days 41 to 42
  % Rec: 20% and 12% and 8% and 30% and 28% and 18%
Dirofilaria immitis; Table 11, individual mouse, NSG mice, 50 Di L3, 5 mg/kg on Days 1, 15, and 30, recovery Days 41 to 42
  % Rec: 4% (2×) and 2% (3×) and 0%
Dirofilaria immitis; in vivo
  Survival, Mean: 9
Dirofilaria immitis; in vivo, 1 mg/kg
  Survival: 5 and 10 and 8 and 6
  Survival, Mean: 7
Dirofilaria immitis; in vivo, 2.5 mg/kg
  Survival, Mean: 3
Dirofilaria immitis; in vivo, 5 mg/kg
  Survival, Mean: 1
Dirofilaria immitis; in vivo, 10 mg/kg
  Survival, Mean: 0

## COC(=O)Nc1nc2ccc(OS(=O)(=O)c3ccc(F)cc3)cc2[nH]1 [compound 8914, luxabendazole]
Dirofilaria immitis; [5]
  % Red: 0%
  Mean % Rec: 33%
Dirofilaria immitis; [6]
  % Rec: 24% and 32% and 28% and 48%
Dirofilaria immitis; in vivo
  Mean Survival: 17
  Survival: 12 and 16 and 14 and 24
